# From patent US20190083420A1, “METHODS OF USING (2R, 6R)-HYDROXYN[…] (2S, 6S)-HYDROXYN[…] THE TREATMENT OF DEPRESSION, ANXIETY, ANHEDONIA, FATIGUE, SUICIDAL IDEATION, AND POST TRAUMATIC STRESS DISORDERS” (The Uinited States of America, as represented by the …, priority 2016, published 2019)
# Entries after “also recorded” stand apart in the source; their conditions may differ.
# Assays:
# male CD-1 mice [1] = experiment: Forced-swim test (FST); assay type: in vivo; settings: for antidepressant effect in the FST (immobility time): i.p.
# Description: (§1) Male CD-1 mice (8-10 weeks old, Charles River Laboratories, Mass., USA) were housed in groups of four-five per cage with a constant 12-hour light/dark cycle (lights on/off at 07:00/19:00). Food and water were available ad libitum. Mice acclimatized to the new environment for seven days prior to the start of the experiments. For the whole-cell NMDA current electrophysiological recordings, male Sprague-Dawley rats (housed three per cage; Charles River, Wilmington, Mass.) were used. EPSC recording were done from rats at postnatal day 24-25. All experimental procedures were approved by the University of Maryland, Baltimore Animal Care and Use Committee and were conducted in full accordance with the National Institutes of Health Guide for the Care and Use of Laboratory Animals.
# Mice were tested in the FST 1 hour and/or 24 hours post-injection. During the FST, mice were subjected to a 6-min swim session in clear Plexiglass cylinders (30 cm height×20 cm diameter) filled with 15 cm of water (23±1° C.). The FST was performed in normal light conditions (800 Lux). Sessions were recorded using a digital video-camera. Immobility time, defined as passive floating with no additional activity other than that necessary to keep the animal's head above water, was scored for the last 4 min of the 6-min test by a trained observer blind to the treatment.
# All drugs were dissolved in 0.9% saline, and administered intraperitoneally (i.p.) in a volume of 7.5 ml/kg of body mass. Corticosterone (4-pregnen-11β, 21-diol-3, 20-dione 21-hemisuccinate; Steraloids, Newport, R.I., USA) was dissolved in tap water. For the electrophysiology recordings, test drugs were diluted in artificial cerebrospinal fluid (AC SF).
# GluR1 and GluR2 = experiment: Western blot of synaptoneurosomes, GluR1 and GluR2 levels; assay type: in vivo, mice
# Method: (§2) To purify synaptoneurosomes, mouse prefrontal cortex or hippocampus were dissected and homogenized in Syn-PER Reagent (ThermoFisher Scientific, Waltham, Mass., USA; Cat #87793) with 1× protease and phosphatase inhibitor cocktail (ThermoFisher Scientific, Waltham, Mass., USA; Cat #78440). The homogenate was centrifuged for 10 min at 1,200×g at 4° C. The supernatant was centrifuged at 15,000×g for 20 min. After centrifugation, the supernatant the pellet (synaptosomal fraction) was re-suspended and sonicated in N-PER Neuronal Protein Extraction Reagent (ThermoFisher Scientific, Waltham, Mass., USA; Cat #87792). For total homogenous tissue lysates, mouse prefrontal cortex or hippocampus were homogenized and sonicated in N-PER Neuronal Protein Extraction Reagent with 1× protease & phosphatase inhibitor cocktail) Protein concentration was determined via the BCA protein assay kit (ThermoFisher Scientific, Waltham, Mass., USA; Cat #23227).
# (§3) For western blotting, equal amount of proteins (10-40 μg as optimal for each antibody) for each sample were loaded into NuPage 4-12% Bis-Tris gel for electrophoresis. Nitrocellulose membranes with transferred proteins were blocked with 5% milk in TBST (TBS+0.1% Tween-20) for 1 hour and kept with primary antibodies overnight at 4° C. The following primary antibodies were used: phospho-eEF2 (Cell Signaling Technology, Danvers, Mass., USA; Cat #2331), total eEF2 (Cell Signaling Technology, Danvers, Mass., USA; Cat #2332), phospho-mTOR (Cell Signaling Technology, Danvers, Mass., USA; Cat #2971), total mTOR (Cell Signaling Technology, Danvers, Mass., USA; Cat #2983), GluR1 (Cell Signaling Technology, Danvers, Mass., USA; […]), GluR2 (Cell Signaling Technology, Danvers, Mass., USA; Cat #13607), BDNF (Santa Cruz Biotechnology, Dallas, Tex., USA; Cat # sc-546), and GAPDH (Abcam, Cambridge, Mass., USA; Cat # ab8245). The next day, blots were washed three times in PBST and incubated with horseradish peroxidase conjugated anti-mouse or anti-rabbit secondary antibody (1:5000 to 1:10000) for 1 hour. After final three washes with TBST, bands were detected using enhanced chemiluminescence (ECL) with the Syngene Imaging System (G:Box ChemiXX9). After imaging, the blots then were incubated in the stripping buffer (ThermoFisher Scientific, Waltham, Mass., USA; Cat #46430) for 10-15 min at room temperature followed by three time washes with TBST. The stripped blots were washed in blocking solution for 1 hour and incubated with the primary antibody directed against total levels of the respective protein or GAPDH for loading control. Densitometric analysis of phospho- and total immunoreactive bands for each protein was conducted using Syngene's GenTools software Immunoreactivity was normalized to the saline treated control group for each protein.
# eEF2 = experiment: Western blot of synaptoneurosomes, eEF2 phosphorylation; assay type: in vivo, mice; settings: for phosphorylation of eEF2: hippocampus, 1 hour and 24 hours post-injection, 10 mg/kg; for eEF2 / phosphorylated eEF2: prefrontal cortex
# Method: as §2, §3
# BDNF = experiment: Western blot of synaptoneurosomes, BDNF levels; assay type: in vivo, mice; settings: for mBDNF levels: hippocampus, 24 hours post-administration, 10 mg/kg; for proBDNF / mBDNF levels: prefrontal cortex
# Method: as §2, §3
# male CD-1 mice [2] = experiment: Novelty-suppressed feeding (NSF); assay type: in vivo; settings: i.p.
# Description: as §1
# Mice were singly housed and food-deprived for twenty-four hours in freshly-made home-cages. Two normal chow diet pellets were placed on a square food platform (10×10 cm) in the center of an open-field arena (40×40 cm). […] The time needed for the mice to take a bite of food was recorded over a 10 min period by a trained observer blind to the treatment groups. After the test, the mice were returned to their home cage containing pre-weighed food pellets, and latency to bite the food as well as consumption was recorded for a period of 10 min.
# mice = experiment: Chronic corticosterone-induced anhedonia, female urine sniffing test; assay type: in vivo; settings: single administration, mice with anhedonic phenotype, re-test 24 hours later
# Method: A separate cohort of mice were treated with the same chronic corticosterone administration paradigm as described above, and 24 hours later assessed for female urine sniffing preference as a measure of hedonic behavior. Mice were singly-housed in freshly-made home cages for a habituation period of 10 min. Subsequently, one plain cotton tip was secured on the center of the cage wall and mice were allowed to sniff and habituate to the tip for a period of 30 min. Then, the plain cotton tip was removed and replaced by two cotton tip applicators one infused with fresh female mouse estrus urine and the other with fresh male mouse urine. These applicators were presented at the same time and secured at the two corners of the cage wall. Sniffing time for both the female and male urine was scored by a trained observer for a period of three minutes.
# [3] = 1- and 24-hours post-injection, times not separated
# [4] = 24 hours post-injection (sustained)
# [5] = listed as (2R,6R)-hydroxynorketamine
Structure (SMILES),antidepressant effect in the FST (immobility time) (male CD-1 mice [1]; [3]),antidepressant effect in the FST (immobility time) (male CD-1 mice [1]; 1 hour post-injection (acute)),antidepressant effect in the FST (immobility time) (male CD-1 mice [1]; [4]),"antidepressant potency in the FST, female versus male mice (male CD-1 mice [1]; female mice compared to males)",GluR1 and GluR2 levels in hippocampal synaptoneurosomes (GluR1 and GluR2; 1 hour post-treatment),GluR1 and GluR2 levels in hippocampal synaptoneurosomes (GluR1 and GluR2; 24 hours post-treatment),"GluR1/GluR2 levels in prefrontal cortex synaptoneurosomes (GluR1 and GluR2; listed as (R,S)-KET)",phosphorylation of eEF2 (eEF2),"phosphorylation of eEF2 (eEF2; listed as (R,S)-ketamine)","eEF2 / phosphorylated eEF2 (eEF2; listed as (R,S)-KET)",mBDNF levels (BDNF),"mBDNF levels (BDNF; listed as (R,S)-ketamine)",proBDNF / mBDNF levels (BDNF),antidepressant-like effect in novelty-suppressed feeding (latency to feed) (male CD-1 mice [2]),reversal of chronic corticosterone-induced decrease in female urine sniffing preference (mice),GluR1/GluR2 levels in prefrontal cortex synaptoneurosomes (GluR1 and GluR2),phosphorylation of eEF2 (eEF2; [5]),eEF2 / phosphorylated eEF2 (eEF2),mBDNF levels (BDNF; [5])
"CNC1(c2ccccc2Cl)CCCCC1=O (racemic) [ketamine, (R,S)-ketamine, reference compound]",acute and long-lasting dose-dependent antidepressant effects,antidepressant responses of both ketamine and MK-801 observed acutely,showed sustained effects following 24 hours,greater antidepressant potency of ketamine in female mice,"neither ketamine nor (2R,6R)-HNK administration altered",both increased GluR1 and GluR2 levels,did not alter synaptoneurosome levels of GluR1/GluR2,induced a decrease in eEF2 phosphorylation,decrease phosphorylation of eEF2,did not alter,increased hippocampal BDNF,increased mBDNF levels,did not alter,,,,,,
"N[C@@]1(c2ccccc2Cl)CCC[C@@H](O)C1=O [(2R,6R)-HNK, (2R,6R)-2-amino-2-(2-chlorophenyl)-6-hydroxycyclohexanone]",greater potency and longer-lasting antidepressant-like effects; also recorded: dose-dependent antidepressant-like effects; also recorded: dose-dependent antidepressant action,,more potent antidepressant effects,,"neither ketamine nor (2R,6R)-HNK administration altered",both increased GluR1 and GluR2 levels,,,,,,,did not alter,dose-dependent antidepressant-like effects; also recorded: dose-dependent antidepressant action,reversed chronic corticosterone-induced decrease in female urine sniffing preference; also recorded: reversed chronic corticosterone-induced anhedonia,did not alter synaptoneurosome levels of GluR1/GluR2,decrease phosphorylation of eEF2,did not alter,increased mBDNF levels
